Molecules are shown by their SMILES. A value given as a limit tells only on which side of the number the result lay.

The values below come from ChEMBL document CHEMBL4184099, “Fragment-based discovery of a potent NAMPT inhibitor” (Bioorg Med Chem Lett, 2018).

Experiment [1] has as its target T1, Nicotinamide phosphoribosyltransferase (Homo sapiens, UniProt P43490). Kind of experiment: Inhibition of NAM binding to human full length C-terminal flag/His-tagged NAMPT (1 to 491 residues) at 400 uM by STD-NMR spectroscopic analysis relative to control.
Target sequence in this assay (P43490 whole entry, looked up, the tested form may be a part): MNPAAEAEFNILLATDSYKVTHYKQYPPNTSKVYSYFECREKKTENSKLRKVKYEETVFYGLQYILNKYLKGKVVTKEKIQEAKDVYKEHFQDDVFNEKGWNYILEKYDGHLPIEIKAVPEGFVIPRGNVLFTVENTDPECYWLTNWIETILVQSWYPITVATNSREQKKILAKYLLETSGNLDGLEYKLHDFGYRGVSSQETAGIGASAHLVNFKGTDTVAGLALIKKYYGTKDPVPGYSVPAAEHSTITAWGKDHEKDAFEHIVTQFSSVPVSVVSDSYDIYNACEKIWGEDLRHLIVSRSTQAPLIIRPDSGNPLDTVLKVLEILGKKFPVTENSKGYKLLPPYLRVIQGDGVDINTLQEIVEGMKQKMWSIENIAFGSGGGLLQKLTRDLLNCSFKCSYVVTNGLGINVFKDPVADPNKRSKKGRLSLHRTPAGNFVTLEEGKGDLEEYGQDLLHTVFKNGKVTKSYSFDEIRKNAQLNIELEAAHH
Experiment [2] has as its target T1, Nicotinamide phosphoribosyltransferase. Kind of experiment: Inhibition of human full length C-terminal flag/His-tagged NAMPT (1 to 491 residues) expressed in HEK293-6E cells by TR-FRET assay.
Target sequence in this assay (P43490 whole entry, the tested form may be a part): as the sequence (P43490 whole entry, looked up, the tested form may be a part) above

`CCCc1cc(=O)[nH]c(Nc2ccccc2F)n1` gave an inhibition in experiment [1] of 80%. Also, the IC50 in experiment [2] was found to be 360 µM.

In experiment [2], `O=C(Cc1ccccc1)Nc1ccc2nc[nH]c2c1` displayed an IC50 of 90 µM.

`CC(C)CCNC(=O)c1ccc(NC(=O)Nc2ccc3nc[nH]c3c2)cc1`: half-maximal inhibition in experiment [2] (IC50) was put at 0.08 µM.

In the case of `O=C(NCc1ccncc1)Nc1ccc(F)c(F)c1`, in experiment [1], the inhibition stood at 80%. Besides, inhibition in experiment [2] was half-maximal at 850 µM (IC50).

`O=C1C2CCC2C(=O)N1CCc1ccccn1` (stereo unspecified) came in with an inhibition in experiment [1] of 80%. For the same molecule, the 50% inhibitory concentration (IC50) in experiment [2] is over 1000 µM.

Turning to `Cc1ccc(Cn2nnc3cc(C(N)=O)ccc32)cc1`, the inhibition in experiment [1] stood at 80%. This molecule showed an IC50 in experiment [2] of 8 µM.

The molecule `O=C1OCCC/C1=C\Nc1ccccc1` yielded a 50% inhibitory concentration (IC50) in experiment [2] of 10 µM.

One may read the inhibition as how much of the control response was suppressed. Read a high inhibition as a response far below the control. What is called IC50 is the concentration that inhibits the measured activity by half. A high value points to weaker potency.
